According to ChEMBL document CHEMBL1148920, “Ingenamine G and cyclostellettamines G-I, K, and L from the new Brazilian species of marine sponge Pachychalina sp” (2004):

Key:
Assay type in all cases: functional
[1] = tested on: Escherichia coli; experiment: Antibacterial activity against Escherichia coli ATCC 25922
[2] = tested on: HCT-8; experiment: Cytotoxicity against human HCT8 cells
[3] = tested on: Staphylococcus aureus; experiment: Antibacterial activity against Staphylococcus aureus ATCC 25923
[4] = tested on: B16; experiment: Cytotoxicity against mouse B16 cells
[5] = tested on: MCF7; experiment: Cytotoxicity against human MCF7 cells
[6] = tested on: Mycobacterium tuberculosis; experiment: Antimycobacterial activity against Mycobacterium tuberculosis H37Rv

Compound: OC1/C=C\C=C/CCN2CC3C=C4CCCCCCCCCC/C=C\CCN5CCC3C(C1)(C5)C42 (stereo unspecified) [INGENAMINE G]
- Activity [1]: 75 µg/mL
- Activity [2]: 8.6 µg/mL
- Activity [3]: 105 µg/mL
- Activity [4]: 9.8 µg/mL
- Activity [5]: 11.3 µg/mL
- Activity [6]: 8 µg/mL
